# Experimental data published in paper PMC10114980, “Triple targeting of mutant EGFR^L858R/T790M, COX-2, and 15-LOX: design and synthesis of novel quinazolinone tethered phenyl urea derivatives for anti-inflammatory and anticancer evaluation” (Journal of Enzyme Inhibition and Medicinal Chemistry, 2023).
# “And” between values parts separate entries of the source, which are not always exact repeats. Equal values may be shown once.
# How the values were obtained:
# LOX IMVI = test: NCI single dose screen, LOX IMVI; assay type: cell-based; conditions: Homo sapiens, melanoma, single dose 10^−5 M, read-out: growth inhibition percentage
# Description: (§1) Screening of the anticancer activity of the newly synthesised compounds (6a, 6c, 6d, 6e, 6j, 6l, 6m, 6n, 6o, and 6p) was performed by the US National Cancer Institute (NCI) using 60 different human tumour cell lines in accordance with standard procedures formerly reported.
# (§2) In vitro anticancer screening was carried out for the selected compounds at a single dose (10^−5 M) against 60 different human tumour cell lines of nine different cancer cell types: leukaemia, lung, colon, CNS, melanoma, ovarian, renal, prostate, and breast cancers.
# SR = test: NCI single dose screen, SR; assay type: cell-based; conditions: Homo sapiens, leukaemia, single dose 10^−5 M, read-out: growth inhibition percentage
# Description: as §1, §2
# SF-539 = test: NCI single dose screen, SF-539; assay type: cell-based; conditions: Homo sapiens, read-out: growth inhibition percentage
# Description: as §1, §2
# NCI-H522 = test: NCI single dose screen, NCI-H522; assay type: cell-based; conditions: Homo sapiens; NCI-H522, non-small cell lung cancer; single dose 10^−5 M; read-out: growth inhibition percentage
# Description: as §1, §2
# OVCAR-8 = test: NCI single dose screen, OVCAR-8; assay type: cell-based; conditions: Homo sapiens; OVCAR-8, ovarian cancer; single dose 10^−5 M; read-out: growth inhibition percentage
# Description: as §1, §2
# K-562 = test: NCI single dose screen, K-562; assay type: cell-based; conditions: Homo sapiens, K562; K-562, leukaemia; single dose 10^−5 M; read-out: growth inhibition percentage
# Description: as §1, §2
# HOP-92 = test: NCI single dose screen, HOP-92; assay type: cell-based; conditions: Homo sapiens; HOP-92, non-small cell lung cancer; single dose 10^−5 M; read-out: growth inhibition percentage
# Description: as §1, §2
# NCI/ADR-RES = test: NCI single dose screen, NCI/ADR-RES; assay type: cell-based; conditions: Homo sapiens, ovarian cancer, single dose 10^−5 M, read-out: growth inhibition percentage
# Description: as §1, §2
# BT-549 = test: NCI single dose screen, BT-549; assay type: cell-based; conditions: Homo sapiens; BT-549, breast cancer; single dose 10^−5 M; read-out: growth inhibition percentage
# Description: as §1, §2
# UO-31 = test: NCI single dose screen, UO-31; assay type: cell-based; conditions: Homo sapiens; UO-31, renal cancer; single dose 10^−5 M; read-out: growth inhibition percentage
# Description: as §1, §2
# [1] = tested on: LPS-induced IL-6 production in RAW 264.7 cells; test: IL-6 production in LPS-activated RAW 264.7 cells (ELISA); assay type: cell-based; conditions: LPS-activated RAW 264.7 cells treated with 25 µM of the compound
# KM12 = test: NCI single dose screen, KM12; assay type: cell-based; conditions: Homo sapiens; KM12, colon cancer; single dose 10^−5 M; read-out: growth inhibition percentage
# Description: as §1, §2
# MDA-MB-231/ATCC = test: NCI single dose screen, MDA-MB-231/ATCC; assay type: cell-based; conditions: Homo sapiens, breast cancer, single dose 10^−5 M, read-out: growth inhibition percentage
# Description: as §1, §2
# wild-type EGFR = biological target: T1, wild-type EGFR (Homo sapiens, UniProt P00533); test: In vitro EGFR inhibition assay, wild type; assay type: biochemical; conditions: read-out: EGFR^WT IC50
# T1 construct: purchased AssayQuant Technologies, Inc. (Marlboro, MA, USA)
# SN12C = test: NCI single dose screen, SN12C; assay type: cell-based; conditions: Homo sapiens, renal cancer, single dose 10^−5 M, read-out: growth inhibition percentage
# Description: as §1, §2
# DU-145 = test: NCI single dose screen, DU-145; assay type: cell-based; conditions: Homo sapiens; DU-145, prostate cancer; single dose 10^−5 M; read-out: growth inhibition percentage
# Description: as §1, §2
# HS 578T = test: NCI single dose screen, HS 578T; assay type: cell-based; conditions: Homo sapiens, breast cancer, single dose 10^−5 M, read-out: growth inhibition percentage
# Description: as §1, §2
# SW-620 = test: NCI single dose screen, SW-620; assay type: cell-based; conditions: Homo sapiens; SW-620, colon cancer; single dose 10^−5 M; read-out: growth inhibition percentage
# Description: as §1, §2
# U251 = test: NCI single dose screen, U251; assay type: cell-based; conditions: Homo sapiens, U-251; U251, CNS cancer; single dose 10^−5 M; read-out: growth inhibition percentage
# Description: as §1, §2
# OVCAR-3 = test: NCI single dose screen, OVCAR-3; assay type: cell-based; conditions: Homo sapiens; OVCAR-3, ovarian cancer; single dose 10^−5 M; read-out: growth inhibition percentage
# Description: as §1, §2
# SNB-75 = test: NCI single dose screen, SNB-75; assay type: cell-based; conditions: Homo sapiens; SNB-75, CNS cancer; single dose 10^−5 M; read-out: growth inhibition percentage
# Description: as §1, §2
# [2] = tested on: LPS-induced TNF-α production in RAW 264.7 cells; test: TNF-α production in LPS-activated RAW 264.7 cells (ELISA); assay type: cell-based; conditions: LPS-activated RAW 264.7 cells treated with 25 µM of the compound
# MDA-MB-468 = test: NCI single dose screen, MDA-MB-468; assay type: cell-based; conditions: Homo sapiens; MDA-MB-468, breast cancer; single dose 10^−5 M; read-out: growth inhibition percentage
# Description: as §1, §2
# M14 = test: NCI single dose screen, M14; assay type: cell-based; conditions: Homo sapiens; M14, melanoma; single dose 10^−5 M; read-out: growth inhibition percentage
# Description: as §1, §2
# SK-OV-3 = test: NCI single dose screen, SK-OV-3; assay type: cell-based; conditions: Homo sapiens; SK-OV-3, ovarian cancer; single dose 10^−5 M; read-out: growth inhibition percentage
# Description: as §1, §2
# UACC-257 = test: NCI single dose screen, UACC-257; assay type: cell-based; conditions: Homo sapiens; UACC-257, melanoma; single dose 10^−5 M; read-out: growth inhibition percentage
# Description: as §1, §2
# CAKI-1 = test: NCI single dose screen, CAKI-1; assay type: cell-based; conditions: Homo sapiens; CAKI-1, renal cancer; single dose 10^−5 M; read-out: growth inhibition percentage
# Description: as §1, §2
# T1 sequence (P00533 25-1210): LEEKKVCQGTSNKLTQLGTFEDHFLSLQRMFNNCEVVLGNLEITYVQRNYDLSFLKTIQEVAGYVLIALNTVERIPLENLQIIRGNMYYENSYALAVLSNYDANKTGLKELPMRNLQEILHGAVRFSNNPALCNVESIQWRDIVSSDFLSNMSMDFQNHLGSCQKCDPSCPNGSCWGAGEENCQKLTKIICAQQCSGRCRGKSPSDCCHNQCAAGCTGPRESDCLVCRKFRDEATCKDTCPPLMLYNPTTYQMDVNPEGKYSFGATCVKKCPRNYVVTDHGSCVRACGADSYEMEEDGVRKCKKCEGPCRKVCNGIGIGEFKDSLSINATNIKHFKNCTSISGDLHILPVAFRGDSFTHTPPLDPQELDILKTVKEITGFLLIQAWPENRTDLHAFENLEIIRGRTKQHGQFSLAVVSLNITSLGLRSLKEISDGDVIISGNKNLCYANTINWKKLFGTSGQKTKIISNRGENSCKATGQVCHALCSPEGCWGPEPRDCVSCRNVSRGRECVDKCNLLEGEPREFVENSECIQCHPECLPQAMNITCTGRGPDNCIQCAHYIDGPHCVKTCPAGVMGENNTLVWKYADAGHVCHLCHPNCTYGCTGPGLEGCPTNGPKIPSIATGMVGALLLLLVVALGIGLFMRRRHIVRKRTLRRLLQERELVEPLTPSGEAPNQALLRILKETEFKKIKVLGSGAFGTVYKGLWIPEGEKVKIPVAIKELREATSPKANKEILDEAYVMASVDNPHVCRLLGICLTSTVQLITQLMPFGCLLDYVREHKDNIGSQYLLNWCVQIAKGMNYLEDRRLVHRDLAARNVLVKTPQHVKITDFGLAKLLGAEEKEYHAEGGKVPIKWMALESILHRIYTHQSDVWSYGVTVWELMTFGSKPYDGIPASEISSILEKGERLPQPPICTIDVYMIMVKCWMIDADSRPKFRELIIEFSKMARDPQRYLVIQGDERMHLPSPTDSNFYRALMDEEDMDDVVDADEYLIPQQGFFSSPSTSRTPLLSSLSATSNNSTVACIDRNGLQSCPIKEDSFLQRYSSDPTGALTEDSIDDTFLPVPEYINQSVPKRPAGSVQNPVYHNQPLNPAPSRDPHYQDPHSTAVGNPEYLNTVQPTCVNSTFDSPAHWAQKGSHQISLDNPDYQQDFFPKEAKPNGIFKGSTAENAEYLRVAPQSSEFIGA
Structure (SMILES),inhibition at 10 µM (LOX IMVI) [%],inhibition at 10 µM (SR) [%],inhibition at 10 µM (SF-539) [%],inhibition at 10 µM (NCI-H522) [%],inhibition at 10 µM (OVCAR-8) [%],inhibition at 10 µM (K-562) [%],inhibition at 10 µM (HOP-92) [%],inhibition at 10 µM (NCI/ADR-RES) [%],inhibition at 10 µM (BT-549) [%],inhibition at 10 µM (UO-31) [%],melting point [°C],IL-6 concentration [1] [pg/mL],inhibition at 10 µM (KM12) [%],inhibition at 10 µM (MDA-MB-231/ATCC) [%],IC50 (wild-type EGFR) [µM],inhibition at 10 µM (SN12C) [%],inhibition at 10 µM (DU-145) [%],inhibition at 10 µM (HS 578T) [%],inhibition at 10 µM (SW-620) [%],inhibition at 10 µM (U251) [%],also measured
"COc1ccc(NC(=O)NN2C(=O)c3ccccc3N(C)C2c2ccc(OC)cc2)cc1 (centres unmarked) [Compound 6j, 1-(4-Methoxyphenyl)-3-(2-(4-methoxyphenyl)-1-methyl-4-oxo-1,4-dihydroquinazolin-3(2H)-yl)urea]",< 10,11.6,< 10,< 10,< 10,< 10,< 10,< 10,70.1,24.6,205 to 207,164.6 ± 5.09,< 10,< 10,> 100,< 10,< 10,< 10,< 10,< 10,inhibition at 10 µM (OVCAR-3): 10.2%; inhibition at 10 µM (SNB-75): < 10%; TNF-α concentration [2]: 757.30 pg/mL and 757.30 ± 2.50 pg/mL; inhibition at 10 µM (MDA-MB-468): < 10%; inhibition at 10 µM (M14): 29.6%; inhibition at 10 µM (SK-OV-3): < 10%; inhibition at 10 µM (UACC-257): 21.9%; inhibition at 10 µM (CAKI-1): < 10%
"CC1N(NC(=O)Nc2ccc(F)cc2)C(=O)c2ccccc2N1C (centres unmarked) [Compound 6l, 1–(1,2-Dimethyl-4-oxo-1,4-dihydroquinazolin-3(2H)-yl)-3-(4-fluorophenyl)urea]",< 10,< 10,< 10,< 10,< 10,< 10,< 10,< 10,< 10,< 10,187 to 190,536.8 ± 3.55,< 10,< 10,> 100,< 10,< 10,< 10,< 10,< 10,inhibition at 10 µM (OVCAR-3): 16.9%; inhibition at 10 µM (SNB-75): < 10%; TNF-α concentration [2]: 1250.00 ± 5.82 pg/mL; inhibition at 10 µM (MDA-MB-468): < 10%; inhibition at 10 µM (M14): < 10%; inhibition at 10 µM (SK-OV-3): < 10%; inhibition at 10 µM (UACC-257): < 10%; inhibition at 10 µM (CAKI-1): < 10%
